Data as given in patent publication US20230339882A1, “SHP2 INHIBITOR AND COMPOSITION AND APPLICATION THEREOF” (Betta Pharmaceuticals Co., Ltd., priority 2020, published 2023).

Key:
SHP2 = SHP2 (Homo sapiens (Human), UniProt Q06124); assay: SHP2 allosteric inhibitory enzyme activity assay (DiFMUP fluorescence); format: biochemical; settings: read-out: SHP2 enzymatic activity IC50
From the text: Example A: SHP2 Allosteric Inhibitory Enzyme Activity Assay
SHP2 is allosterically activated by binding of a bis-tyrosyl-phosphorylated peptide to its Src homology 2 (SH2) domain. This later activation step results in the release of the autoinhibitory interface of SHP2, which in turn activates the SHP2 protein tyrosine phosphatase (PTP) and is available for substrate recognition and reaction catalysis. The catalytic activity of SHP2 was monitored using the surrogate DiFMUP in a rapid fluorescence assay format.
experiment procedure: • (1) Compound preparation: • The compounds of the present invention (10 mM stock solution) were diluted to appropriate times with 100% DMSO, and the final test concentrations of the compounds of the present invention were 10 µM, 3.3333 µM, 1.1111 µM, 0.3704 µM, 0.1235 µM, 0.0412 µM, 0.0137 µM, 0.0046 µM, 0.0015 µM, 0.00 µM; • (2) Prepare the enzyme reaction working solution: • Perform SHP2 enzymatic assays in 96-well black polystyrene plates (flat bottom, low flange, non-binding surface) (Perki Elmer, Cat#6005270) at room temperature using a final reaction volume of 50 µL and the following assay buffer conditions: 60 mM HEPES, 75 mM NaCl, 75 mM KCl, 0.05% BRIJ-35, 1 mM EDTA, 5 mM DTT. • (3) Enzyme-catalyzed reaction and data monitoring: • Add the compound of the present invention to the corresponding 96-well plate, and set the blank test well without compound and enzyme only with buffer. Thaw SHP2 Activating Peptide (IRS1_pY1172(dPEG8)pY1222) on ice, add 25 µM to each well, then add 0.2 ng of SHP2 protein sample to the corresponding well plate and incubate at room temperature for 1 hour. The surrogate substrate DiFMUP (Invitrogen, Cat #D6567) was added to the reaction and allowed to react for 1 hour at room temperature. Fluorescence signals were monitored using a microplate reader (Envision, Perki Elmer) using excitation and emission wavelengths of 340 nm and […], respectively. • (4) Data analysis: • Calculation Formula: • [formula]
Among them: Conversion_sample is the conversion rate reading of the sample; Conversion_min is the average value of blank control wells, representing the conversion rate readings of wells without enzymatic activity; Conversion_max is the mean ratio of positive control wells, representing the conversion rate readings of wells without compound inhibition. The log(inhibitor) vs. response-Variable slope of the analysis software GraphPad Prism was used to fit the dose-response curve, and the IC50 value of the compound for the enzymatic activity was calculated.

[1] = test system: lung cancer cells NCI-H358; assay: Cell proliferation assay, CELL TITER-GLO (CTG) luminescence, NCI-H358; format: cell-based; settings: cultured for 96 hrs
Method: (§1) Example B: Cell Proliferation Assay
(§2) The effects of the compounds of the invention on the proliferation of leukemia cells MV-4-11 and lung cancer cells NCI-H358 were evaluated using in vitro cell assays. The detection method used in the experiment is the CELL TITER-GLO (CTG) luminescence method, which can detect the number of viable cells by quantifying ATP. Because ATP participates in a variety of enzymatic reactions in vivo, it is an indicator of the metabolism of living cells, and its content directly reflects the number and state of cells. During the experiment, CellTiter-Glo™ reagent was added to the cell culture medium to measure the luminescence value. The value is proportional to the amount of ATP, and ATP is positively related to the number of living cells, so the cell viability can be examined by detecting the ATP content.
(§3) experiment procedure: • (1) Cell plating: • Take a bottle of MV-4-11 cells in logarithmic growth phase, resuspend the cells by centrifugation and count them. After adjusting the cell density, they were seeded into a 96-well plate (Corning #3917). After culturing in a 5% CO2 incubator for 24 hrs, the compound of the present invention was added for treatment; • Take a bottle of NCI-H358 cells in logarithmic growth phase, digest and resuspend the cells, count them, adjust the cell density, and inoculate them into a 96-well transparent ultra-low adsorption cell culture plate (Corning #3474), inoculate 2000 cells per well. The plate was placed in an incubator at 37° C. and 5% CO2 for 24 hrs, and then the compound of the present invention was added for treatment; • (2) Cell compound treatment: • An appropriate amount of the compound of the present invention was prepared for cell treatment. The final concentration of the compound from high to low was 1000 nM, 333.3 nM, 111.1 nM, 37.04 nM, 12.35 nM, 4.115 nM, 1.372 nM, 0.4572 nM, 0.1524 nM, and 0 nM. The plate was placed in a 37° C., 5% CO2 incubator for 120 hrs. Only adding medium without cell wells was set as the blank group; the group with compound concentration of 0 nM was the zero-adjusting group. • (3) CTG detection: • After NCI-H358 cells were cultured for 96 hrs, 50 µL of CellTiter-Glo® Luminescent Cell Viability Assay solution was added to each well, shaken gently for 2 mins, and incubated at room temperature for 10 mins. The cell reaction system was transferred to a white-bottomed 96-well plate. Read the detection value of each well on a multi-function microplate reader. • After MV-4-11 cells were cultured for 120 hrs, 50 µL of CellTiter-Glo® Luminescent Cell Viability Assay solution was added to each well, gently shaken for 2 mins, and incubated at room temperature for 10 mins. Check the value. • (4) Data analysis: • Calculate the inhibition rate from the luminescence value readings, • [formula]
(§4) The log(inhibitor) vs. response-Variable slope of GraphPad Prism was fitted to dose-response curves and IC50s of compounds that inhibited cell proliferation were calculated.

leukemia cells MV-4-11 = assay: Cell proliferation assay, CELL TITER-GLO (CTG) luminescence, MV-4-11; format: cell-based
Method: as §1, §2, §3, §4

[2] = Homo sapiens, NCI-H358, ultra-low adsorption plate
[3] = Homo sapiens, MV4-11, cultured for 120 hrs

| SMILES | IC50 (SHP2) | IC50 [1, 2] | IC50 (leukemia cells MV-4-11; [3]) | IC50 ([1]; ultra-low adsorption plate) | IC50 (leukemia cells MV-4-11; cultured for 120 hrs) |
| --- | --- | --- | --- | --- | --- |
| N[C@@H]1c2ccccc2CC12CCN(c1ncc(C#CCOc3ccccc3)nc1CO)CC2 [Compound A01, (S)-(3-(1-amino-1,3-dihydrospiro [indene-2,4′-piperidine]-1′-yl)-6-(3-phenoxyprop-1-yn-1-yl)pyrazin-2-yl)methanol] | 1.2 nM | 7.3 nM | 2.6 nM |  |  |
| COc1cccc(OCC#Cc2cnc(N3CCC4(CC3)Cc3ccccc3[C@H]4N)c(CO)n2)c1 [Compound A02, (S)-(3-(1-amino-1,3-dihydrospiro [indene-2,4′-piperidine]-1′-yl)-6-(3-(3-methoxyphenoxy)prop-1-yn-1-yl)pyrazin-2-yl) methanol] | 0.7 nM | 7.8 nM | 5 nM |  |  |
| Nc1cccc(OCC#Cc2cnc(N3CCC4(CC3)Cc3ccccc3[C@H]4N)c(CO)n2)c1 [Compound A03] | 1.1 nM |  |  | 2.5 nM | 1.5 nM |
| N[C@@H]1c2ccccc2CC12CCN(c1ncc(C#CCNc3ccccc3)nc1CO)CC2 [Compound A07, (S)-(3-(1-amino-1,3-dihydrospiro [indene-2,4′-piperidine]-1′-yl)-6-(3-(phenylamino)prop-1-yn-1-yl)pyrazin-2-yl) methanol] | 2.5 nM | 12 nM | 5.5 nM |  |  |
| COc1ccccc1OCC#Cc1cnc(N2CCC3(CC2)Cc2ccccc2[C@H]3N)c(CO)n1 [Compound A10, (S)-(3-(1-amino-1,3-dihydrospiro[indene-2,4′-piperidin]-1′-yl)-6-(3-(2-methoxyphenoxy)prop-1-yn-1-yl)pyrazin-2-yl)methanol] |  | 4.3 nM | 4.4 nM |  |  |
| CN(C)C(=O)c1cccc(OCC#Cc2cnc(N3CCC4(CC3)Cc3ccccc3[C@H]4N)c(CO)n2)c1 [Compound A36, (S)-3-((3-(5-(1-amino-1,3-dihydrospiro[indene-2,4′-piperidin]-1′-yl)-6-(hydroxymethyl)pyrazin-2-yl)prop-2-yn-1-yl)oxy)-N,N-dimethylb enzamide] |  | 48 nM | 14 nM |  |  |
| NC(=O)c1nc(C#CCOc2ccc3c(c2)C(=O)NC3)cnc1N1CCC2(CC1)Cc1ccccc1[C@H]2N [Compound A42] | 15 nM |  |  |  |  |
| N[C@@H]1c2ccccc2CC12CCN(c1ncc(C#CCOc3ccc(C(F)(F)F)nc3)nc1CO)CC2 [Compound A70, (S)-(3-(1-amino-1,3-dihydrospiro[indene-2,4′-piperidin]-1′-yl)-6-(3-( (6-(trifluoromethyl)pyridin-3-yl)oxy)prop-1-yn-1-yl)pyrazin-2-yl)m ethanol] |  | 17 nM | 6.2 nM |  |  |

Other lines, results leading:

| IC50 (SHP2) | IC50 [1, 2] | IC50 (leukemia cells MV-4-11; [3]) | IC50 ([1]; ultra-low adsorption plate) | IC50 (leukemia cells MV-4-11; cultured for 120 hrs) | SMILES |
| --- | --- | --- | --- | --- | --- |
| 2.9 nM | 4 nM | 3.6 nM |  |  | CC(=O)Nc1cccc(OCC#Cc2cnc(N3CCC4(CC3)Cc3ccccc3[C@H]4N)c(CO)n2)c1 [Compound A04, (S)-N-(3-((3-(5-(1-amino-1,3-dihydrospiro[indene-2,4′-piperidin]-1′-yl)-6-(hydroxymethyl)pyrazin-2-yl)prop-2-yn-1-yl)oxy)phenyl)acetamide] |
|  | 15 nM | 14 nM |  |  | N[C@@H]1c2ccccc2CC12CCN(c1ncc(C#CCOc3cccc(Cl)c3F)nc1CO)CC2 [Compound A05, (S)-(3-(1-amino-1,3-dihydrospiro[indene-2,4′-piperidin]-1′-yl)-6-(3-(3-chloro-2-fluorophenoxy)prop-1-yn-1-yl)pyrazin-2-yl)methanol] |
| 6.8 nM | 11 nM | 8 nM |  |  | COc1cccc(SCC#Cc2cnc(N3CCC4(CC3)Cc3ccccc3[C@H]4N)c(CO)n2)c1 [Compound A06, (S)-(3-(1-amino-1,3-dihydrospiro[indene-2,4′-piperidin]-1′-yl)-6-(3-((3-methoxyphenyl)thio)prop-1-yn-1-yl)pyrazin-2-yl)methanol] |
|  | 11 nM | 6.9 nM |  |  | CC(=O)c1cccc(OCC#Cc2cnc(N3CCC4(CC3)Cc3ccccc3[C@H]4N)c(CO)n2)c1 [Compound A16, (S)-1-(3-((3-(5-(1-amino-1,3-dihydrospiro[indene-2,4′-piperidin]-1′-yl)-6-(hydroxymethyl)pyrazin-2-yl)prop-2-yn-1-yl)oxy)phenyl)etha n-1-one] |
|  | 51 nM | 25 nM |  |  | CC(=O)Nc1cccc(OCC#Cc2cnc(N3CCC4(CC3)Cc3ccccc3[C@H]4N)n(C)c2=O)c1 [Compound A34, (S)-N-(3-((3-(2-(1-amino-1,3-dihydrospiro[indene-2,4′-piperidin]-1′-yl)-1-methyl-6-oxo-1,6-dihydropyrimidin-5-yl)prop-2-yn-1-yl)oxy)phenyl)acetamide] |
|  | 3.6 nM | 3 nM |  |  | CNC(=O)c1cccc(OCC#Cc2cnc(N3CCC4(CC3)Cc3ccccc3[C@H]4N)c(CO)n2)c1 [Compound A35, (S)-3-((3-(5-(1-amino-1,3-dihydrospiro[indene-2,4′-piperidine]-1′-yl)-6-(hydroxymethyl)pyrazin-2-yl)prop-2-yn-1-yl)oxy)-N-methylben zamide] |
|  | 2.1 nM | 0.9 nM |  |  | N[C@@H]1c2ccccc2CC12CCN(c1ncc(C#CCNc3ccc4c(c3)NC(=O)CC4)nc1CO)CC2 [Compound A64, (S)-7-((3-(5-(1-amino-1,3-dihydrospiro[indene-2,4′-piperidin]-1′-yl)-6-(hydroxymethyl)pyrazin-2-yl)prop-2-yn-1-yl)amino)-3,4-dihydroq uinolin-2(1H)-one] |
|  | 0.9 nM | 1 nM |  |  | N[C@@H]1c2ccccc2CC12CCN(c1ncc(C#CCOc3ccc4[nH]ncc4c3)nc1CO)CC2 [Compound A67, (S)-(6-(3-((1H-Indazol-5-yl)oxy)prop-1-yn-1-yl)-3-(1-amino-1,3-dihydrospiro[Indene-2,4′-piperidin]-1 ‘-yl)pyrazin-2-yl)methanol] |
|  | 2.1 nM | 0.7 nM |  |  | Nc1nc2cc(OCC#Cc3cnc(N4CCC5(CC4)Cc4ccccc4[C@H]5N)c(CO)n3)ccc2o1 [Compound A69, (S)-(3-(1-amino-1,3-dihydrospiro[inden-2,4′-piperidin]-1′-yl)-6-(3-((2-Aminobenzo[d]oxazol-5-yl)oxy)prop-1-yn-1-yl)pyrazin-2-yl)met hanol] |
|  | 3.5 nM | 1.8 nM |  |  | CNC(=O)c1ccc(OCC#Cc2cnc(N3CCC4(CC3)Cc3ccccc3[C@H]4N)c(CO)n2)cc1 [Compound A72, (S)-4-((3-(5-(1-amino-1,3-dihydrospiro[indene-2,4′-piperidin]-1′-yl)-6-(hydroxymethyl)pyrazin-2-yl)prop-2-yn-1-yl)oxy)-N-methylbenzamide] |
